Test [1] is described as follows: Conditioned avoidance (discrete trial) test. The following applies: for ED50: Rattus norvegicus; for Activity at 40 mg/kg: 40 mg/kg perorally administered. The format is in vivo, Male CD rats. On the procedure:
The antipsychotic activity of the compounds of the invention is assessed via the conditioned avoidance (discrete trial) test. This test has excellent clinical correlation for antipsychotic activity.
Male CD rats (Charles River) maintained at approximately 400-450 gm body weight are used. Rats trained previously are placed in plexiglass experimental chambers equipped with a response lever, house light, and sonalert. A steel grid floor is wired for presentation of electric shock. Each trial consists of a fifteen-second warning tone (conditioned stimulus), continuing for an additional fifteen seconds accompanied by electric shock, (unconditioned stimulus). The rat can terminate a trial at any point by depression of the response lever. A response during the initial fifteen-second warning tone ends the trial before shock delivery and is considered an avoidance response, while a response occurring during shock delivery is an escape response. Trials are presented on a variable interval schedule of two minutes. The session consists of sixty trials. Animals are run two to three times weekly with control sessions always preceding a drug run, and with at least one day intervening, compounds are administered i.p. or p.o. at appropriate pre-treatment times to a minimum of five to six rats at each dose level over a range of doses.
The following experimental parameters are recorded by computer: (1) the number of intertrial interval responses, (2) the number of avoidance responses, (3) the number of escape responses, and (4) the number of trials in which no response occurred.
Response counts are summed over all subjects at a given dose. […] This number is expressed as a percentage of the total trials. Control performance is arbitrarily assigned a value of 100% for avoidance and the dose calculated to produce a 50% block in avoidance responding (AB50 ) is obtained from a dose-effect regression line fitted by the method of least squares. Potential antipsychotic compounds suppress avoidance responding and increase escape responding.

Test [2] addresses limbic D-2 dopamine receptor (Rattus norvegicus, UniProt P61169). In words: biochemical. The format is binding, rats. The following applies: for Ki: rat limbic tissue, 0.3 nM 3H-spiroperidol, 37° C., 10 min, read-out: Limbic D-2 Binding (Ki nM). The method, then:
The compounds of the invention are further studied for their ability to inhibit limbic D-2 dopamine receptor binding. This in vitro assay measures the ability of the compounds tested to bind to the dopamine receptor sites.
Several rats are decapitated and the brains are rapidly removed. Limbic brain tissue (nucleus accumbens, septal area, olfactory tubercle) is dissected and homogenized on ice in 9 volumes of buffer (50 mM Tris-HCl, 120 mM NaCl, 5 mM KCl, 1 mM CaCl2, 1 mM MgCl2, 0.1% L-ascorbic acid, 10 μM pargyline HCl, pH 7.1) using a Polytron homogenizer at setting 5 for three 15-sec bursts. The homogenate is then diluted 4-fold with buffer and centrifuged at 30,000×g for 20 min, and the supernatant is discarded. The pellet is resuspended in the same volume of buffer and recentrifuged as before, again discarding the supernatant. This pellet is then resuspended in the same volume of buffer used in the homogenization, and the protein content of this preparation is assyed by the Lowry method. The homogenate is stored frozen at -70° C. until use.
Thirty μL of the homogenate (0.02-0.3 mg protein/sample) are incubated with 0.3 nM ^3 H-spiroperidol (New England Nuclear) and various concentrations of test drug in a final volume of 1 ml of the above buffer for 10 min in a 37° C. water bath. At the end of the incubation, 3 ml of cold 50 mM Tris-HCl, pH 7.7, are added to each tube, and the contents are rapidly vacuum-filtered through Whatman GF/B glass-fiber filters. The filters are then rapidly washed 3 times with 3 ml of the same buffer, placed in scintillation vials, and shaken for 15 min with 10 ml of Hydrofluor (National Diagnostics) scintillation cocktail. The vials are then counted in a Packard 460CD scintillation counter.
Specific binding is defined as total binding less binding in the presence of 1 μM (+)butaclamol. Binding in the presence of various concentrations of test drug is expressed as a per cent of specific binding when no drug is present.

[3] abbreviates: po, perorally administered, discrete trial, rats, read-out: AB50 (the source's name).

Counter-ions that a name gives are not always drawn. Like-named read-outs stand apart in the source and are kept apart here.

As usually defined, the inhibition is how much of the control response was suppressed. Usually Ki stands for a dissociation constant, usually derived from enzyme kinetics or from competition with a known ligand.

Chain of limbic D-2 dopamine receptor (P61169 whole entry): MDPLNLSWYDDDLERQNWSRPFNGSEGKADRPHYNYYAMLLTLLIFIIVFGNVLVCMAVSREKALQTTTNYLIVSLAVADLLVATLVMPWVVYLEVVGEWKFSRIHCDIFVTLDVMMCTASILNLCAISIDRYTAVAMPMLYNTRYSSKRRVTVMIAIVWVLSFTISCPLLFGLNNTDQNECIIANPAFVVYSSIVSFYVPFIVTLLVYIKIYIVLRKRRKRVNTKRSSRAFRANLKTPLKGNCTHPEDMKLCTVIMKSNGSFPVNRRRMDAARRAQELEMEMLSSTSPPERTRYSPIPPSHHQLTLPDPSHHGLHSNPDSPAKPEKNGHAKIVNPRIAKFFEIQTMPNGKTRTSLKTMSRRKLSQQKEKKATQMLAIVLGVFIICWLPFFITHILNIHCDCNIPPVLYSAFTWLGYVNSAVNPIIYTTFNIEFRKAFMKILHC

Regarding `O=C1[C@@H]2[C@@H]([C@H]3CC[C@@H]2O3)S(=O)(=O)N1CCCCN1CCN(c2cncc(Cl)n2)CC1` (relative stereo) [Example 8, 3aα,4β,7β,7aα-hexahydro-2-[4-[4-(6-chloro-2-pyrazinyl)-1-piperazinyl]butyl]-4,7-epoxy-1,2-benzisothiazol-3(2H)-one 1,1-dioxide, hydrochloride], the ED50 in test [1] (setting [3]) was determined as 34.3 mg/kg. In test [2] (read-out: Limbic D-2 Binding, % inhibition at 10 μM), the inhibition at 10 µM came to 36%. For the molecule `O=C1[C@H]2[C@H]([C@@H]3CC[C@H]2O3)S(=O)(=O)N1CCCCN1CCN(c2cnccn2)CC1` (relative stereo) [Example 19, (3aα,4β,7β,7aα)-Hexahydro-2-[4-[4-(2-pyrazinyl)-1-piperazinyl]butyl]-4,7-epoxy-1,2-benzisothiazol-3(2H)-one 1,1-dioxide, dihydrochloride, hemihydrate], the ED50 in test [1] (setting [3]) came out at 47.9 mg/kg. With `O=C1[C@@H]2[C@@H]([C@@H]3CC[C@H]2O3)S(=O)(=O)N1CCCCN1CCN(c2cncc(Cl)n2)CC1` (relative stereo) [Example 20, (3aα,4α,7α,7aα)-2-[4-[4-(6-Chloro-2-pyrazinyl)-1-piperazinyl]butyl]hexahydro-4,7-epoxy-1,2-benzisothiazol-3(2H)-one 1,1-dioxide, hydrochloride], in test [1], the “Activity at 40 mg/kg” value was “showed activity”.

On to `O=C1C2C3C=CC(C3)C2S(=O)(=O)N1CCCCN1CCN(c2ncccn2)CC1` (stereo not drawn) [Example 1, 3a,4,7,7a-Tetrahydro-2-[4-[4-(2-pyrimidinyl)-1-piperazinyl]butyl]-4,7-methano-1,2-benzisothiazol-3(2H)-one 1,1-dioxide, dihydrochloride, hemihydrate], for which, in test [1] (setting [3]), the ED50 is 45.4 mg/kg. Further, in test [2], the inhibition constant Ki was determined as 1100 nM.

Turning to `O=C1C2C3C=CC(CC3)C2S(=O)(=O)N1CCCCN1CCN(c2ncccn2)CC1` (stereo not drawn) [Example 2, 3a,3,7,7a-Tetrahydro-2-[4-[4-(2-pyrimidinyl)-1-piperazinyl]butyl]-4,7-ethano-1,2-benzisothiazol-3(2H)-one 1,1-dioxide, dihydrochloride, hydrate], the Ki in test [2] came out at 2000 nM. Take `CC1=C(C)CC2C(C1)C(=O)N(CCCCN1CCN(c3ncccn3)CC1)S2(=O)=O` (stereo not drawn) [Example 3, 3a,4,7,7a-Tetrahydro-5,6-dimethyl-2-[4-[4-(2-pyrimidinyl)-1-piperazinyl]butyl]-1,2-benzisothiazol-3(2H)-one 1,1-dioxide dihydrochloride]: the inhibition at 1 µM in test [2] (read-out: Limbic D-2 Binding, % inhibition at 1 μM) is 21%. On to `O=C1C2C3C=CC(C4CC34)C2S(=O)(=O)N1CCCCN1CCN(c2ncccn2)CC1` (stereo not drawn) [Example 6, 4,4a,5,5a,6,6a-hexahydro-2-[4-[4-(2-pyrimidinyl)-1-piperazinyl]butyl]-4,6-etheno-2H-cyclopropa[f][1,2]benzisothiazol-3(3aH)-one 1,1-dioxide,dihydrochloride], for which the Ki in test [2] turned out to be 1410 nM.

For the molecule `O=C1c2ccccc2S(=O)(=O)N1CCCCN1CCN(c2nccnc2Cl)CC1` [Example 11, 2-[4-[4-(3-Chloro-2-pyrazinyl)-piperazinyl]butyl]-1,2-benzisothiazol-3(2H)-one 1,1-dioxide, hydrochloride], the inhibitory constant (Ki) in test [2] came to 493 nM.

With `CC1=C(C)CC2C(C1)C(=O)N(CCCCN1CCN(c3nccnc3Cl)CC1)S2(=O)=O` (stereo not drawn) [Example 13, 2-[4-[4-(3-Chloro-2-pyrazinyl)-1-piperazinyl]butyl]-3a,4,7,7a-tetrahydro-5,6-dimethyl-1,2-benzisothiazol-3(2H)-one 1,1-dioxide, hydrochloride, hydrate], in test [2], the Ki is 507 nM. For the molecule `Cl.Cl.O=C1C2C3C=CC(C3)C2S(=O)(=O)N1CCCCN1CCN(c2cncc(Cl)n2)CC1` (stereo not drawn) [Example 14, 2-[4-[4-(6-Chloro-2-pyrazinyl)-1-piperazinyl]butyl]-3a,4,7,7a-tetrahydro-4,7-methano-1,2-benzisothiazol-3(2H)-one 1,1-dioxide, dihydrochloride], the ED50 in test [1] (setting [3]) was 78.2 mg/kg. With `O=C1C2C3CCC(C3)C2S(=O)(=O)N1CCCCN1CCN(c2ncccn2)CC1` (stereo not drawn) [Example 15, 2-[4-[4-(2-Pyrimidinyl)-1-piperazinyl]butyl]-3a,4,5,6,7,7a-hexahydro-4,7-methano-1,2-benzisothiazol-3(2H)-one 1,1-dioxide, dihydrochloride, hemihydrate], the “Activity at 40 mg/kg” value in test [1] is “showed activity”.

With `Cl.O=C1C2C3CCC(C3)C2S(=O)(=O)N1CCCCN1CCN(c2cncc(Cl)n2)CC1` (stereo not drawn) [Example 16, 2-[4-[4-(6-Chloro-2-pyrazinyl)-1-piperazinyl]butyl]-3a,4,5,6,7,7a-hexahydro-4,7-methano-1,2-benzisothiazol-3(2H)-one 1,1-dioxide, hydrochloride], the “Activity at 40 mg/kg” value in test [1] is reported as “showed activity”.

In the case of `O=C1C2C3CCC(C4CC43)C2S(=O)(=O)N1CCCCN1CCN(c2ncccn2)CC1` (stereo not drawn) [Example 17, Hexahydro-2-[4-[4-(2-pyrimidinyl)-1-piperazinyl]butyl-4,6-ethano-2H-cycloprop[f]-1,2-benzisothiazol-3(2H)-one 1,1-dioxide, hydrochloride], the “Activity at 40 mg/kg” value in test [1] is given as “showed activity”. Take `O=C1C2C3C=CC(C4CC34)C2S(=O)(=O)N1CCCCN1CCN(c2cncc(Cl)n2)CC1` (stereo not drawn) [Example 18, 2-[4-[4-(6-Chloro-2-pyrazinyl)-1-piperazinyl]butyl]-4,4a,5,5a,6,6a-hexahydro-4,6-etheno-2H-cycloprop[f]-1,2-benzisothiazol-3(2H)-one 1,1-dioxide, hydrochloride]: the “Activity at 40 mg/kg” value in test [1] was “showed activity”. Further, the inhibition constant (Ki) in test [2] was determined as 1030 nM. As for `O=C1C2C3C=CC(C4C=CC43)C2S(=O)(=O)N1CCCCN1CCN(c2ncccn2)CC1` (stereo not drawn) [Example 21, 3a,4,4a,6a,7,7a-Hexahydro-2-[4-[4-(2-pyrimidinyl)-1-piperazinyl]butyl]-4,7-ethenocyclobut[f]-1,2-benzisothiazol-3(2H)-one 1,1-dioxide, dihydrochloride], the “Activity at 40 mg/kg” value in test [1] is “showed activity”. Moreover, the ED50 in test [1] (setting [3]) was determined as 39.4 mg/kg. `O=C(CCCN1CCC(O)(c2ccc(Cl)cc2)CC1)c1ccc(F)cc1` [Haloperidol, reference compound]: the “AB50 (standard compounds)” value in test [1] (i.p., discrete trial, rats) is recorded as 0.18 mg/kg i.p. Regarding `O=C(CCCN1CCC2(CC1)C(=O)NCN2c1ccccc1)c1ccc(F)cc1` [Spiperone, reference compound], the ED50 in test [1] (ip, discrete trial, rats, read-out: AB50 (standard compounds)) came to 0.13 mg/kg.

(Values after US4732984A, “Piperazinoisothiazolones with psychotropic activity” (priority 1986, dated 1988).)
